From US20110172297A1, “Oxopiperdinyl And Pyranyl Sulfonamides and Pharmaceutical Compositions Thereof” (Pfizer Inc, priority 2008, published 2011)

Test system: AMPA receptors
Test: AMPA ES cell FLIPR screen (AMPA Potentiator Assay)
Type: cell-based
Settings: murine ES cell-derived neurons, FLIPR Fluo-4 calcium signal, 32 uM AMPA challenge; values marked * are the geometric mean of 2-9 EC50 determinations
Description: The murine ES cell line used was E14-Sx1-16C, which has a targeted mutation in the Sox1 gene, a neuroectodermal marker, that offers G418 resistance when the Sox1 gene is expressed (Stem Cell Sciences). ES cells were maintained undifferentiated as previously described (Roach). […] ES cells were plated on gelatin-coated dishes (BD Biosciences), the media was changed daily and the cells were dissociated with 0.05% Trypsin EDTA (Invitrogen) every other day.
Embryoid Body Formation: Prior to embryoid body (EB) formation the ES cells were weaned from FBS onto Knockout Serum Replacement (KSR) (Invitrogen). To form EBs, ES cells were dissociated into a single cell suspension, then 3×10^6 cells were plated in bacteriology dishes (Nunc 4014) and grown as a suspension culture in NeuroEB-I medium that consisted of Knockout™ D-MEM (Invitrogen), supplemented with 10% KSR (Invitrogen), 0.2 mM L-Glutamine (Invitrogen), 0.1 mM MEM non-essential amino acids (Invitrogen), 30 μg/ml Gentamicin (Invitrogen), 1000 u/ml ESGRO (Chemicon), 0.1 mM 2-Mercaptoethanl (Sigma) and 150 ng/ml Transferrin (Invitrogen). The plates were put on a Stovall Belly Button shaker in an atmospheric oxygen incubator. The media was changed on day 2 of EB formation with NeuroEB-I and on day 4 with NeuroEB-II (NeuroEB-I plus 1 μg/ml mNoggin [R&D Systems]).
Neuronal Precursor Selection and Expansion: On day 5 of EB formation, EBs were dissociated with 0.05% Trypsin EDTA, and 4×10^6cells/100 mm dish were plated on Laminin coated tissue culture dishes in Neuroll-G418 medium that consisted of a base medium of a 1:1 mixture of D-MEM/F12 supplemented with N2 supplements and NeuroBasal Medium supplemented with B27 supplement and 0.1 mM L-Glutamine (all from Invitrogen). The base medium was then supplemented with 10 ng/ml bFGF (Invitrogen), 1 μg/ml mNoggin, 500 ng/ml SHH—N, 100 ng/ml FGF-8b (R&D Systems), 1 μg/ml Laminin and 200 μg/ml G418 (Invitrogen) for selection of neuronal precursors expressing Sox-1. The plates were put in an incubator that contained 2% Oxygen and were maintained in these conditions. During the 6-day selection period, the Neuroll media was changed daily. On day 6, the surviving neuronal precursor foci were dissociated with 0.05% Trypsin EDTA and the cells were plated at a density of 1.5×10^6 cells/100 mm Laminin coated dish in Neuroll-G418 medium. The cells were dissociated every other day for expansion, and prepared for Cryopreservation at passage 3 or 4. The crypreservation medium contained 50% KSR, 10% Dimethyl Sulfoxide (DMSO) (Sigma) and 40% Neurol-G418I medium. Neuronal precursors were crypreserved at a concentration of 4×10^6 cells/ml and 1 ml/cryovial in a controlled rate freezer overnight then transferred to an ultra-low freezer or liquid nitrogen for long-term storage.
Neuronal Differentiation: Cryopreserved ES cell-derived neuronal precursors were thawed by the rapid thaw method in a 37-degree water-bath. The cells were transferred from the cryovial to a 100 mm Laminin coated tissue culture dish that already contained Neuroll-G418 that had been equilibrated in a 2% Oxygen incubator. The media was changed with fresh Neuroll-G418 the next day. The cells were dissociated every other day as described above for expansion to generate enough cells to plate for the screen. For the screen, the cells were plated into 384-well poly-d-lysine coated tissue culture dishes (BD Biosciences) by the automated SelecT at a cell density of 6K cells/well in differentiation medium Neurolll that contained a 4:1 ratio of the NeuroBasalMedium/B27:D-MEM/F12/N2 supplemented with 1 μM cAMP (Sigma), 200 μM Ascorbic Acid (Sigma), 1 μg/ml Laminin (Invitrogen) and 10 ng/ml BDNF (R&D Systems). The plates were put in an incubator with 2% Oxygen and allowed to complete the differentiation process for 7 days. The cells could then be used over a 5-day period for the high throughput screen.
On the day of the assay, the FLIPR assay may be performed using the following methods: […]

CC(C)S(=O)(=O)N[C@H]1CCCO[C@@H]1c1ccc(-c2ccc(C#N)s2)cc1 [Example 48, N-{(2R,3S)-2-[4-(5-cyano-2-thienyl)phenyl]tetrahydro-2H-pyran-3-yl}propane-2-sulfonamide]
EC50: 5640 nM

CC(C)S(=O)(=O)N[C@@H]1CCCO[C@H]1c1ccc(-c2ccc(C#N)s2)cc1 [Example 49, N-{(2S,3R)-2-[4-(5-cyano-2-thienyl)phenyl]tetrahydro-2H-pyran-3-yl}propane-2-sulfonamide]
EC50: > 31600 nM

CCOc1ccccc1-c1ccc([C@H]2NC(=O)CC[C@@H]2NS(=O)(=O)C(C)C)cc1 [Example 50, N-[(2R,3S)-2-(2′-ethoxybiphenyl-4-yl)-6-oxopiperidin-3-yl]propane-2-sulfonamide]
EC50: 1710 nM

CC(C)S(=O)(=O)N[C@@H]1CCC(=O)N[C@H]1c1ccc(-c2ccc(C#N)s2)cc1 [Example 51, N-{(2S,3R)-2-[4-(5-cyano-2-thienyl)phenyl]-6-oxopiperidin-3-yl}propane-2-sulfonamide]
EC50: 1710 nM

CC(C)S(=O)(=O)N[C@@H]1CCC(=O)N[C@H]1c1ccc(-c2ccccc2C#N)cc1 [Example 52, N-[(2S,3R)-2-(2′-cyanobiphenyl-4-yl)-6-oxopiperidin-3-yl]propane-2-sulfonamide]
EC50: > 31600 nM

CC(C)S(=O)(=O)N[C@H]1CCC(=O)N[C@@H]1c1ccc(-c2ccc(C#N)s2)cc1 [Example 53, N-{(2R,3S)-2-[4-(5-cyano-2-thienyl)phenyl]-6-oxopiperidin-3-yl}propane-2-sulfonamide]
EC50: 2360 nM

CC(C)S(=O)(=O)N[C@H]1CCC(=O)N[C@@H]1c1ccc(-c2ccccc2C#N)cc1 [Example 54, N-[(2R,3S)-2-(2′-cyanobiphenyl-4-yl)-6-oxopiperidin-3-yl]propane-2-sulfonamide]
EC50: 2290 nM

CC(C)S(=O)(=O)N[C@H]1COCC[C@H]1c1ccc(-c2ccccc2)cc1 [Example 55, N-[(3R,4S)-4-biphenyl-4-yltetrahydro-2H-pyran-3-yl]propane-2-sulfonamide]
EC50: > 31600 nM

CC(C)S(=O)(=O)N[C@@H]1COCC[C@@H]1c1ccc(-c2ccccc2C#N)cc1 [Example 56, N-[(3S,4R)-4-(2′-cyanobiphenyl-4-yl)tetrahydro-2H-pyran-3-yl]propane-2-sulfonamide]
EC50: > 31600 nM

CC(C)S(=O)(=O)N[C@H]1COCC[C@H]1c1ccc(-c2ccccc2C#N)cc1 [Example 57, N-[(3R,4S)-4-(2′-cyanobiphenyl-4-yl)tetrahydro-2H-pyran-3-yl]propane-2-sulfonamide]
EC50: 748 nM

CC(C)S(=O)(=O)N[C@@H]1COCC[C@@H]1c1ccc(-c2ccc(C#N)s2)cc1 [Example 58, N-{(3S,4R)-4-[4-(5-cyano-2-thienyl)phenyl]tetrahydro-2H-pyran-3-yl}propane-2-sulfonamide]
EC50: > 31600 nM

CC(C)S(=O)(=O)N[C@H]1COCC[C@H]1c1ccc(-c2ccc(C#N)s2)cc1 [Example 59, N-{(3R,4S)-4-[4-(5-cyano-2-thienyl)phenyl]tetrahydro-2H-pyran-3-yl}propane-2-sulfonamide]
EC50: 2100 nM

CC(C)S(=O)(=O)N[C@@H]1COCC[C@@H]1c1ccc(-c2ccc(C#N)cc2)cc1 [Example 60, N-[(3S,4R)-4-(4′-cyanobiphenyl-4-yl)tetrahydro-2H-pyran-3-yl]propane-2-sulfonamide]
EC50: > 31600 nM

CC(C)S(=O)(=O)N[C@H]1COCC[C@H]1c1ccc(-c2ccc(C#N)cc2)cc1 [Example 61, N-[(3R,4S)-4-(4′-cyanobiphenyl-4-yl)tetrahydro-2H-pyran-3-yl]propane-2-sulfonamide]
EC50: > 31600 nM

CCOc1ccccc1-c1ccc([C@H]2CCOC[C@H]2NS(=O)(=O)C(C)C)cc1 [Example 62, N-[(3S,4R)-4-(2′-ethoxybiphenyl-4-yl)tetrahydro-2H-pyran-3-yl]propane-2-sulfonamide]
EC50: > 31600 nM

CCOc1ccccc1-c1ccc([C@@H]2CCOC[C@@H]2NS(=O)(=O)C(C)C)cc1 [Example 63, N-[(3R,4S)-4-(2′-ethoxybiphenyl-4-yl)tetrahydro-2H-pyran-3-yl]propane-2-sulfonamide]
EC50: 669 nM
